These results are taken from ChEMBL document CHEMBL1201862, “PubChem BioAssay data set” (2004).

Some test systems named below: DU-145; BT-549; ACHN; T47D; NCI-H226; SF-539; EKVX; CAKI-1; M14; SK-MEL-28; UACC-257; PC-3; A498; SN12C; UO-31; HCT-116; 786-0; OVCAR-5; K562; OVCAR-3.
Common to all, as to test: NCI anticancer screen, dose series, 48 h

Values joined by “and” are separate entries in the source; they are usually repeats but may differ in a detail not shown here. Equal values may be shown once.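 Protocol summary: plate cells (96-well), add compound at 5 concentrations, incubate 48 h, interpolate endpoints linearly. The concentration for 50% growth inhibition is given as GI50.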 Active and inactive are the calls of the source. No stated cut-off is given here; in the data, active = GI50 up to about 1.1 µM and inactive = higher.

Turning to `C=CCCC(=O)N1CCC(C(=O)OCC)C1=O` (centres undefined), the GI50 with DU-145 is > 100 µM (inactive); with BT-549, > 100 µM (inactive); in the assay with ACHN, > 100 µM (inactive); with T47D, > 100 µM (inactive); with NCI-H226 it was 90.8 µM (inactive); in the assay with SF-539, > 100 µM (inactive). For the same compound, the GI50 in the assay on EKVX, in the assay with CAKI-1, with M14, with SK-MEL-28, in the assay on UACC-257 and with PC-3 was > 100 µM (inactive) throughout. Besides, the GI50 in the assay with A498, in the assay on SN12C, in the assay on UO-31, in the assay on HCT-116, in the assay with 786-0 and in the assay with OVCAR-5 was > 100 µM (inactive) each time.

On to `Cn1c2ccccc2n2c3ccccc3c3nnc(N)c-3c12`, for which the GI50 is 33.7 µM (inactive) in the assay on DU-145; > 65.8 µM (inactive) in the assay on K562; 2.25 µM (inactive) in the assay on BT-549; 91.2 µM (inactive) in the assay on ACHN; 1.64 µM (inactive) in the assay on T47D; > 93.1 µM (inactive) with NCI-H226. Also, the GI50 is 28.2 µM (inactive) with OVCAR-3; > 100 µM (inactive) in the assay on EKVX; 76.4 µM (inactive) with CAKI-1; > 95.3 µM (inactive) in the assay on M14; > 81.3 µM (inactive) in the assay with SK-MEL-28; 51.1 µM (inactive) in the assay on UACC-257. In addition, the GI50 is 68.2 µM (inactive) with PC-3; > 100 µM (inactive) with A498; 0.757 µM (active) in the assay with SN12C; > 100 µM (inactive) with UO-31; 35.2 µM (inactive) in the assay on HCT-116; 0.847 µM (active) in the assay with 786-0. Further, the GI50 in the assay with OVCAR-5 was > 100 µM (inactive).

With `S=C(NCCc1ccccn1)c1nc[nH]c1C(=S)NCCc1ccccn1`, the GI50 is 30.8 µM (inactive) in the assay on DU-145; 40.8 µM (inactive) with K562; 42.3 µM (inactive) with BT-549; 36.3 µM (inactive) in the assay with ACHN; 23.5 µM (inactive) in the assay with T47D; 46.8 µM (inactive) in the assay on NCI-H226. In addition, the GI50 in the assay on OVCAR-3 is 37.9 µM (inactive); in the assay on EKVX, 83.8 µM (inactive); in the assay on CAKI-1 it was 57.1 µM (inactive); in the assay with M14, 31.9 µM (inactive); in the assay with SK-MEL-28, 52.4 µM (inactive); with UACC-257, > 100 µM (inactive). Further, the GI50 was 39.2 µM (inactive) in the assay with PC-3; > 100 µM (inactive) in the assay with A498; 68.5 µM (inactive) with SN12C; 29 µM (inactive) in the assay on UO-31; 34 µM (inactive) with HCT-116; 53.3 µM (inactive) in the assay on 786-0. In the assay on OVCAR-5, the GI50 was > 100 µM (inactive).

As to `c1cc2c3c(c1)[C@@H]1O[C@@H]1c1cccc(c1-3)[C@@H]1O[C@H]21`, the GI50 in the assay on DU-145 was 18 µM (inactive); in the assay with K562, 17.7 µM (inactive); with BT-549 it was 24 µM (inactive); in the assay with ACHN it was 18.7 µM (inactive); in the assay on T47D it was 20.5 µM (inactive); with NCI-H226 it was > 100 µM (inactive). Moreover, the GI50 was 16.6 µM (inactive) in the assay with EKVX; 14.8 µM (inactive) with CAKI-1; 15 µM (inactive) with M14; 15.7 µM (inactive) with SK-MEL-28; 18.2 µM (inactive) with UACC-257; 22.9 µM (inactive) with PC-3. Further, the GI50 with A498 was 63.8 µM (inactive); in the assay on SN12C, 19.7 µM (inactive); in the assay on UO-31 it was 14.6 µM (inactive); with HCT-116, 15 µM (inactive); in the assay on 786-0, 20 µM (inactive); in the assay on OVCAR-5, 16.5 µM (inactive).

For the compound `Cn1c2c(c3ccccc3c1=O)C(=O)c1ccccc1-2`, the GI50 is > 100 µM (inactive) in the assay on DU-145; > 100 µM (inactive) in the assay on K562; 50.9 µM (inactive) in the assay on BT-549; > 100 µM (inactive) with T47D; 63.8 µM (inactive) in the assay with NCI-H226; 76.4 µM (inactive) in the assay on OVCAR-3. Besides, the GI50 in the assay on SF-539 was 19.7 µM (inactive); in the assay on EKVX, 20.6 µM (inactive); in the assay with CAKI-1 it was > 100 µM (inactive); in the assay with M14 it was > 100 µM (inactive); with SK-MEL-28, > 100 µM (inactive); with UACC-257, > 100 µM (inactive). The GI50 in the assay with PC-3 was > 100 µM (inactive); with A498 it was 74.1 µM (inactive); with SN12C, 80.2 µM (inactive); with UO-31, 21.9 µM (inactive); in the assay on HCT-116, 15.5 µM (inactive); in the assay with 786-0, 17.9 µM (inactive). Also, in the assay on OVCAR-5, the GI50 is > 100 µM (inactive).

For the compound `CC(=O)C1=C(C)N2C(=NC3=C(CCc4ccccc43)C2c2cccc(Br)c2)S1` (centres undefined), the GI50 in the assay on DU-145 was > 100 µM (inactive); with BT-549, > 100 µM (inactive); with ACHN it was > 100 µM (inactive); in the assay on T47D it was > 100 µM (inactive); with NCI-H226 it was 79.6 µM (inactive); in the assay with OVCAR-3, 93.1 µM (inactive). In addition, the GI50 in the assay on SF-539 is > 100 µM (inactive); in the assay with EKVX, 11.4 µM (inactive); with M14, > 100 µM (inactive); with SK-MEL-28, > 100 µM (inactive); in the assay on UACC-257 it was 84.1 µM (inactive); in the assay with PC-3 it was > 100 µM (inactive). Further, the GI50 in the assay with A498 was > 100 µM (inactive); in the assay with SN12C, > 100 µM (inactive); in the assay on UO-31, > 100 µM (inactive); in the assay with HCT-116, 30.8 µM (inactive); in the assay on 786-0, > 100 µM (inactive); in the assay on OVCAR-5 it was > 100 µM (inactive).

For `C=C1C(=O)OC2/C=C(\CO)C(OC(C)=O)CC(O)/C(C)=C/C(OC(=O)C(C)CC)C12` (centres undefined), the GI50 with DU-145 is 19.8 µM (inactive); with BT-549, 19.4 µM (inactive); with ACHN, 26.2 µM (inactive) and 23.7 µM (inactive); in the assay with T47D it was 15.7 µM (inactive); in the assay on NCI-H226, 29.6 µM (inactive); with OVCAR-3, 18.5 µM (inactive) and 16.5 µM (inactive). For the same compound, the GI50 in the assay on SF-539 was 24.8 µM (inactive) and 19.2 µM (inactive); in the assay with EKVX, 25.5 µM (inactive) and 25.1 µM (inactive); in the assay on CAKI-1 it was 27.5 µM (inactive) and 24.2 µM (inactive); with M14, 16.7 µM (inactive) and 15.8 µM (inactive); in the assay with SK-MEL-28, 18.3 µM (inactive) and 26.9 µM (inactive); in the assay with UACC-257 it was 15.2 µM (inactive) and 18 µM (inactive). Besides, the GI50 was 39.2 µM (inactive) with PC-3; 33 µM (inactive) and 28.2 µM (inactive) in the assay on A498; 18.2 µM (inactive) and 20.2 µM (inactive) with SN12C; 87.1 µM (inactive) and 65.5 µM (inactive) with UO-31; 14 µM (inactive) and 19.7 µM (inactive) in the assay on HCT-116; 14.8 µM (inactive) and 21.8 µM (inactive) in the assay on 786-0.

Consider `O=c1[nH]nc(Cc2ccccc2)n1/N=C\c1ccccc1`, for which the GI50 in the assay on DU-145, with K562, with BT-549, in the assay on ACHN, in the assay with T47D and with NCI-H226 was > 100 µM (inactive) in each case. The GI50 with OVCAR-3, in the assay on SF-539, in the assay with EKVX, in the assay on CAKI-1, in the assay on SK-MEL-28 and in the assay on UACC-257 was > 100 µM (inactive) each time. For the same compound, the GI50 in the assay with PC-3 is > 100 µM (inactive); in the assay on A498, > 100 µM (inactive); in the assay on SN12C, > 100 µM (inactive); with UO-31 it was > 100 µM (inactive); with HCT-116, > 100 µM (inactive); with 786-0, 71.3 µM (inactive). Besides, in the assay with OVCAR-5, the GI50 was > 100 µM (inactive).

In the case of `CC(C)=CCOc1cc(NC(=S)c2ccoc2C)ccc1Cl` [UC 781], the GI50 was > 100 µM (inactive) with DU-145; > 100 µM (inactive) in the assay on BT-549; > 100 µM (inactive) with ACHN; 5.07 µM (inactive) with T47D; 57.4 µM (inactive) in the assay on NCI-H226; > 100 µM (inactive) with OVCAR-3. Further, the GI50 in the assay with SF-539, in the assay on EKVX, in the assay with CAKI-1, with SK-MEL-28, in the assay with UACC-257 and in the assay with PC-3 was > 100 µM (inactive) in each case. Also, the GI50 is > 100 µM (inactive) in the assay on A498; 34.7 µM (inactive) with SN12C; > 100 µM (inactive) with UO-31; > 100 µM (inactive) in the assay with HCT-116; > 100 µM (inactive) in the assay with 786-0; > 100 µM (inactive) with OVCAR-5.

As to `CC(C)(C)OC(=O)N1CC(O)O[C@H](c2ccccc2)[C@@H]1c1ccccc1` (some centres undefined), the GI50 in the assay with DU-145 is 25.5 µM (inactive); in the assay on K562 it was 33.4 µM (inactive); in the assay with BT-549 it was 17.8 µM (inactive); in the assay with T47D it was 31.1 µM (inactive); with NCI-H226 it was 20.6 µM (inactive); in the assay with OVCAR-3, 15.6 µM (inactive). Also, the GI50 was 19.5 µM (inactive) in the assay on EKVX; 44.9 µM (inactive) with CAKI-1; 16.4 µM (inactive) in the assay on M14; 18.6 µM (inactive) with SK-MEL-28; 17.7 µM (inactive) with UACC-257; 14.7 µM (inactive) in the assay with PC-3. Also, the GI50 in the assay with A498 was 21.4 µM (inactive); in the assay with SN12C, 38.2 µM (inactive); in the assay on UO-31 it was 17.6 µM (inactive); in the assay with HCT-116 it was 44.6 µM (inactive); in the assay on 786-0, 27.9 µM (inactive); in the assay with OVCAR-5, 17.9 µM (inactive).
